Test results reported in paper PMC10976160, “Comparative Pharmacokinetics Research of 13 Bioactive Components of Jieyu Pills in Control and Attention Deficit Hyperactivity Disorder Model Rats Based on UPLC-Orbitrap Fusion MS” (Molecules, 2024).
Like-named read-outs stand apart in the source and are kept apart here.

Key:
[1] = Pharmacokinetics in ADHD model rats after gavage of JYPs; format: in vivo, SHR rats (ADHD model); conditions: for peak time: oral JYPs; for AUC(0-inf) / AUC(0-t) / Cmax / Tmax / half-life / MRT last / MRT inf: male, SHR, rat, plasma; for MRT last: read-out: MRT(0-t); for MRT inf: read-out: MRT(0-∞)
Protocol: Based on the established analytical method for plasma samples, a pharmacokinetic study was conducted on 13 constituents in the plasma of ADHD model rats after gavage of JYPs (Figure 3). The linearity of ln(AUC0-t)–ln(dose) and ln(Cmax)–ln(dose) was analyzed in the same way.
For the control experiment, healthy male Sprague Dawley (SD) rats of SPF grade ([…] ± 20 g) were purchased from Sipeifu (Beijing) Biotechnology Co., Ltd. (Beijing, China), Animal Quality Certificate No. 110324220102348616. For the ADHD model rats, healthy male SHR rats of SPF grade, weighing 220 ± 20 g, were purchased from SBF (Beijing) Biotechnology Co., Ltd. (Beijing, China), License No. SCXK (Yu) 2019-0010. The animals were accommodated in the Animal Center of Henan University of Traditional Chinese Medicine, which successfully underwent an ethical audit with ethics number DWLL202208003. The animals were bred under controlled conditions at a temperature of 24 °C and a relative humidity of 50 ± 2%. Before the experiment, the animals abstained from eating for 12 h and had unrestricted access to water. The feeding and experimental research conducted on the experimental animals adhered to the laws outlined in the Management of Experimental Animals in Henan Province.
JYPs were ground into a fine powder and sieved through 60-mesh sieves; then, 20 g of fine JYP powder was taken, having been weighed precisely. A precise volume of 50 mL of pure water was added and mixed well to prepare a 0.4 g/mL suspension solution of JYPs, which was then stored in the refrigerator at 4 °C.
This study involved 24 healthy male SD rats with a body mass of 220 ± 20 g and 24 healthy male ADHD rats with a body mass of 220 ± 20 g. Subjects abstained from food for a duration of 12 h before the experiment and consumed water without restriction. Both kinds of rats were randomly divided into four groups: a blank group, given an equal dose of water intragastrically, and 3 different administration groups: rats given the equivalent human dose of JYPs by gavage in doses of 1.080 g/kg/d, 2.160 g/kg/d, and 4.320 g/kg/d. Tail vein blood was collected at 0.083, 0.25, 0.5, 0.75, 1, 1.5, 2, 3, 4, 6, 8, 12, 18, and 24 h after dosing. About 0.5 mL of blood was collected in sodium heparin centrifugal tubes, then centrifuged at 4 °C for 10 min at a speed of 3500r/min. We took the upper layer and placed it at −80 °C for preservation.
We took 200 μL of plasma, added 600 μL of methanol solution and 50 μL of internal standard (100 ng/mL), and subjected it to shaking for 5 min, followed by centrifugation at 4 °C at 12,000 r/min for 10 min. The supernatant was collected and allowed to dry, then reconstituted with 50 μL of 50% methanol and centrifuged at 4 °C at 14,000 r/min for a further 10 min. The supernatant after this process was taken as the test solution. A volume of 5 μL was used for UPLC-MS analysis. The drug concentration in plasma was calculated with the aid of the internal standard.
Chromatographic conditions: Hypersil GOLD (100 × 2.1 mm, 1.9 μm) column; column temperature 35 °C; mobile phase acetonitrile (A)/0.1% formic acid aqueous solution (B); gradient elution; gradient elution program: 0–0.5 min (95% B–95% B), 0.5–8 min (95% B–50% B), 8–14 min (50% B–20% B), 14–20 min (20% B–5% B), 20–22 min (5% B–5% B), 22–25 min (95% B–95% B); flow rate 0.2 mL/min; injection volume 5 μL. The ion source was electrospray ionization (ESI), with positive and negative ion mode spray voltages of 3.50 and 3.0 kV, an ion transfer tube temperature of 300 °C, nitrogen as the carrier gas, a sheath gas pressure of 35 arb, an auxiliary gas pressure of 8 arb, and an auxiliary heater temperature of 275 °C.

[2] = set-up: method as in PMID 32135035; conditions: rats, oral dosing; cited from earlier work
[3] = ADHD model rats, oral JYPs high dose 4.320 g/kg/d (3rd of 3 values)
[4] = ADHD model rats, oral JYPs low dose 1.080 g/kg/d (1st of 3 values)
[5] = ADHD model rats, oral JYPs medium dose 2.160 g/kg/d (2nd of 3 values)
[6] = 1.08 g/kg/day, ADHD model rats, oral JYPs low dose 1.080 g/kg/d (1st of 3 values)
[7] = 2.16 g/kg/day, ADHD model rats, oral JYPs medium dose 2.160 g/kg/d (2nd of 3 values)
[8] = 4.32 g/kg/day, ADHD model rats, oral JYPs high dose 4.320 g/kg/d (3rd of 3 values)

Row | AUMC(0-t) [1, 3] | AUMC(0-ꝏ) [1, 3] | AUMC(0-t) [1, 4] | AUMC(0-ꝏ) [1, 4] | AUMC(0-t) [1, 5] | AUMC(0-ꝏ) [1, 5] | AUC(0-inf) [1, 6] [µg·h/mL] | AUC(0-t) [1, 6] [µg·h/mL] | Cmax [1, 6] [µg/mL] | Tmax [1, 6] [h] | half-life [1, 6] [h] | MRT last [1, 6] [h] | MRT inf [1, 6] [h] | AUC(0-inf) [1, 7] [µg·h/mL] | AUC(0-t) [1, 7] [µg·h/mL] | Cmax [1, 7] [µg/mL] | Tmax [1, 7] [h] | MRT last [1, 7] [h] | MRT inf [1, 7] [h] | AUC(0-inf) [1, 8] [µg·h/mL] | Compound | also measured
1 | 2395.92± 288.80 ng/mL*(h)² | 5783.46± 3073.92 ng/mL*(h)² | 1392.40± 460.59 ng/mL*(h)² | 4853.64± 3957.39 ng/mL*(h)² | 1937.54± 771.89 ng/mL*(h)² | 5558.75± 2961.42 ng/mL*(h)² | 0.233 ± 0.0912 | 0.164 ± 0.0575 | 0.0409 ± 0.0229 | 0.5 ± 0.16 | 13.3 ± 7.06 | 8.75 ± 1.6 | 19.4 ± 9.93 | 0.324 ± 0.131 | 0.24 ± 0.0966 | 0.053 ± 0.0192 | 0.79 ± 0.19 | 8.13 ± 1.23 | 16.8 ± 3.55 | 0.387 ± 0.0787 | C[C@H]1O[C@@H](O[C@H]2CC[C@@]3(C)[C@@H](CC[C@]4(C)[C@@H]3C=C[C@]35OC[C@@]6(CCC(C)(C)C[C@H]63)[C@@H](O)C[C@]54C)[C@]2(C)CO)[C@H](O)[C@@H](O[C@@H]2O[C@H](CO)[C@@H](O)[C@H](O)[C@H]2O)[C@H]1O [Saikosaponin A] | peak time ([1]; ADHD model rats): less than 1 h; Clearances [1, 3]: 2855.71 ± 621.15 mL/h; Vss [1, 3]: 40360.07 ± 12917.92 mL; Clearances [1, 4]: 1291.22 ± 525.61 mL/h; Vss [1, 4]: 23782.60 ± 13625.69 mL; Vss [1, 5]: 35282.72 ± 25449.21 mL; MRT(0-t), ADHD rats compared with control rats ([1]; all concentrations): significantly higher; AUC(0-t), model rats compared with control rats ([1]; high-dose administration group): significantly greater; half-life [1, 7]: 12.2 ± 2.82 h; AUC(0-t) [1, 8]: 0.307 ± 0.0556 µg·h/mL; Cmax [1, 8]: 0.0731 ± 0.0226 µg/mL; Tmax [1, 8]: 0.58 ± 0.13 h; half-life [1, 8]: 10.3 ± 4.24 h; MRT last [1, 8]: 7.95 ± 1.2 h; MRT inf [1, 8]: 14.5 ± 5.42 h
2 | 1294.18± 361.60 ng/mL*(h)² | 3035.93± 850.28 ng/mL*(h)² | 761.68± 201.22 ng/mL*(h)² | 2701.81± 992.13 ng/mL*(h)² | 1149.72± 377.93 ng/mL*(h)² | 3004.18± 2085.30 ng/mL*(h)² | 0.132 ± 0.0323 | 0.0913 ± 0.0246 | 0.0226 ± 0.00241 | 0.58 ± 0.13 | 15 ± 5.9 | 8.43 ± 0.96 | 20.3 ± 5.6 | 0.188 ± 0.0552 | 0.145 ± 0.0328 | 0.0331 ± 0.00336 | 0.54 ± 0.25 | 7.8 ± 1.36 | 14.8 ± 6.52 | 0.201 ± 0.05 | C[C@H]1O[C@@H](O[C@H]2CC[C@@]3(C)[C@@H](CC[C@]4(C)[C@@H]3C=C[C@]35OC[C@@]6(CCC(C)(C)C[C@H]63)[C@H](O)C[C@]54C)[C@]2(C)CO)[C@H](O)[C@@H](O[C@@H]2O[C@H](CO)[C@@H](O)[C@H](O)[C@H]2O)[C@H]1O [Saikosaponin D] | peak time ([1]; ADHD model rats): less than 1 h; Clearances [1, 3]: 3506.08 ± 856.33 mL/h; Vss [1, 3]: 53202.65 ± 17657.23 mL; Clearances [1, 4]: 1343.52 ± 399.07 mL/h; Vss [1, 4]: 26784.08 ± 8767.24 mL; Clearances [1, 5]: 1952.91 ± 715.40 mL/h; Vss [1, 5]: 26532.70 ± 7619.14 mL; MRT, model rats compared with control rats ([1]; high-dose): higher; half-life [1, 7]: 10.6 ± 4.96 h; AUC(0-t) [1, 8]: 0.156 ± 0.0386 µg·h/mL; Cmax [1, 8]: 0.0415 ± 0.0124 µg/mL; Tmax [1, 8]: 0.38 ± 0.14 h; half-life [1, 8]: 10.3 ± 2.55 h; MRT last [1, 8]: 8.26 ± 0.54 h; MRT inf [1, 8]: 15.2 ± 2.75 h; AUC, ADHD model rats compared with control rats ([1]; medium- and high-dose): higher
3 | 458.69± 201.28 ng/mL*(h)² | 1348.99± 756.73 ng/mL*(h)² | 322.64± 100.23 ng/mL*(h)² | 870.35± 311.46 ng/mL*(h)² | 383.83± 150.84 ng/mL*(h)² | 1224.58± 657.13 ng/mL*(h)² | 0.0493 ± 0.0147 | 0.0367 ± 0.0182 | 0.00407 ± 0.00185 | 1.67 ± 1.21 | 12.8 ± 3.2 | 8.9 ± 1.12 | 17.9 ± 4.8 | 0.0622 ± 0.0245 | 0.0447 ± 0.0182 | 0.00557 ± 0.00226 | 1.13 ± 0.44 | 8.72 ± 0.8 | 20 ± 7.8 | 0.0697 ± 0.0271 | CCC/C=C1\OC(=O)C2=C1CCC=C2 [Z-Ligustilide] | t1/2 [1, 5]: 14.63 ± 7.18 h; AUC(0-t) [1, 8]: 0.0495 ± 0.0168 µg·h/mL; Cmax [1, 8]: 0.00663 ± 0.00178 µg/mL; Tmax [1, 8]: 0.96 ± 0.1 h; half-life [1, 8]: 12.5 ± 3.72 h; MRT last [1, 8]: 8.9 ± 1.5 h; MRT inf [1, 8]: 18 ± 5 h; oral bioavailability [2]: relatively poor
